Data on 5 compounds can be found in PMC2948534 (American journal of respiratory cell and molecular biology, 2005).

Ends that are not written are not given here.

In data set [1] the test system is A549 epithelial cells. The data set can be described thus: LDH release. Conditions: for effect of receptor inhibitor on LL-37-induced LDH release: 1 h pretreatment (pertussis toxin 100 ng/ml; PD1683 2 μM; AG1478 1 μM), then 50 μg/ml LL-37 for 24 h, DMEM without serum. The format is cell-based, human. On the technique in general: Release of lactate dehydrogenase indicates damage to the cell membrane.

The subject of data set [2] is airway epithelial or monocyte-like cell line. Conditions: presence of FBS; cited from earlier work.

In the case of `COc1cc2ncnc(Nc3cccc(Cl)c3)c2cc1OC` [AG1478], the “effect of receptor inhibitor on LL-37-induced LDH release” value in data set [1] is listed as “No decrease in LDH release”.
The same measure, in the same setting: under `C=CC(=O)Nc1ccc2ncnc(Nc3cccc(Br)c3)c2c1` [PD1683] stands “No decrease in LDH release”.
Regarding CRAMP, in data set [1] (10% human serum, data not shown), the “LDH release effects at >100 μg/ml in the presence of human serum” value is “similarly suppressed”. In addition, the “cell death compared with LL-37” value in data set [1] (A549 cells) is on record as “induced significantly less cell death than LL-37”. In addition, in data set [1] (data not shown), the “concentrations at which no statistically significant LDH release was observed” value is under 100 µg/mL.
For “indolicidin: cathelicidin peptide (ILPWKWPWWPWRR; ends and bridges not checked; UniProt P33046 131-143, looked up)”, the “induction of cell death” value in data set [2] is recorded as “do not induce cell death”.
On to pertussis toxin, for which the “effect of receptor inhibitor on LL-37-induced LDH release” value in data set [1] was “No decrease in LDH release”.
